Measurements as given in the NIST ThermoML archive (doi:10.1021/je400109a).
Numbers after ± are expanded uncertainties.

Assay: an = ratio of the nth substance listed
Conditions: 101 kPa, Liquid, Vibrating tube method

| Compound | mass density (293.15 K, a1 = 0.5) [kg/m3] | mass density (293.15 K, a1 = 0.75) [kg/m3] | mass density (313.15 K, a1 = 0.5) [kg/m3] | mass density (313.15 K, a1 = 0.75) [kg/m3] | mass density (333.15 K, a1 = 0.5) [kg/m3] | mass density (333.15 K, a1 = 0.75) [kg/m3] |
| --- | --- | --- | --- | --- | --- | --- |
| COP(=O)([O-])OC.Cn1cc[n+](C)c1 [1,3-dimethylimidazolium dimethylphosphate] + O | 1086.4 ± 0.2 | 1112.3 ± 0.3 | 1076.8 ± 0.2 | 1104.1 ± 0.2 | 1076.6 ± 0.2 | 1103.3 ± 0.2 |
| Cn1cc[n+](C)c1.[Cl-] [1,3-dimethylimidazolium chloride] + O | – | – | – | 1096.1 ± 0.3 | – | – |
| Cn1cc[n+](C)c1.F[B-](F)(F)F [1,3-dimethyl-1H-imidazolium tetrafluoroborate] + O | – | – | – | 1098.4 ± 0.3 | – | – |
